Data: patent US9938262B2, “Benzamides” (Merck Patent GmbH, priority 2011, dated 2018)

These compounds were tested against T1, FSHR (Homo sapiens, UniProt P23945) (assay: EC50 of cyclic AMP production in CHO FSHR cells + EC20 FSH (Assay A)). Conditions: 1 h; 5 μM; effect relative to maximum response of the FSH standard; Table 1.
T1 construct: expressed in transfected cells; host or cells: CHO (Cho-FSHR-LUC-1-1-43)
Format: cell-based
Procedure, shortened: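 cAMP HTRF ratio (665/620 nm) read after 1 h, 37 °C exposure of CHO-FSHR cells to compound in presence of EC20 FSH ([…]) and IBMX 200 μM. Responses given relative to FSH standard maximum; EC50 derived.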

T1 sequence (P23945 18-695): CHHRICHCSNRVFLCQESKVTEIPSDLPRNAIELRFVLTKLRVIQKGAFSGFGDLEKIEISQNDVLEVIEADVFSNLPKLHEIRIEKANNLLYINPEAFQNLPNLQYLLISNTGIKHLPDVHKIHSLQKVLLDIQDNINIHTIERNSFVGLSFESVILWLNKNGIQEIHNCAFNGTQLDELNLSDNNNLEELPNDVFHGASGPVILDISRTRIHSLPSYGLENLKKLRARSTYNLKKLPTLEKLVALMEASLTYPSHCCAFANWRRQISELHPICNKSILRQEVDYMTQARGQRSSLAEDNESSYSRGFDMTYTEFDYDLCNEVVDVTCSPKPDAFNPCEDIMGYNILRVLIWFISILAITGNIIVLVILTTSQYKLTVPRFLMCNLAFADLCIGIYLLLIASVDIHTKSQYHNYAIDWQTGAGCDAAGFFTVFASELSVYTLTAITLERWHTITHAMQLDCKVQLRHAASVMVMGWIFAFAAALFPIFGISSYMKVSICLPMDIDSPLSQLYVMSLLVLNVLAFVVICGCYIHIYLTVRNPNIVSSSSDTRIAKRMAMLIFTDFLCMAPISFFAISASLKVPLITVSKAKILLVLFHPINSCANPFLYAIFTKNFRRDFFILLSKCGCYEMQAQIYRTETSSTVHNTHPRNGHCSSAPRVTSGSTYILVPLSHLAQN
T1 sequence (P01215 25-116 partner): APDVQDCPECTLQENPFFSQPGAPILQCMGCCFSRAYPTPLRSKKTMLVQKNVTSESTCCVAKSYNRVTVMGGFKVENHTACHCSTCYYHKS
T1 sequence (P01225 19-129 partner): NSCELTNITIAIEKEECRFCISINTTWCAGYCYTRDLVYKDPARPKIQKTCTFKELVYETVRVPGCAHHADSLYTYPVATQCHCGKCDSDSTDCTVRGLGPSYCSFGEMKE

Row | activation at 5 µM [%] | Compound
1 | 20 | Cc1ccc(C(=O)Nc2cc(C(=O)NCCCN3CCCC3=O)ccc2N2CCN(Cc3ccccc3C(F)(F)F)[C@@H](C)C2)o1 [Compound 254]
2 | 24 | COc1ccc(CNC(=O)c2ccc(N3CCN(c4ccccc4C)CC3)c(NC(=O)c3ccco3)c2)cc1 [Compound 122]
3 | 34 | Cc1ccccc1N1CCN(c2ccc(C(=O)NCCCN3CCCC3=O)cc2NC(=O)c2cccc3ccccc23)CC1 [Compound 88]

Same assay, conditions: 1 h; 5 μM; effect relative to maximum response of the FSH standard; Table 2

Row | activation at 5 µM [%] | Compound
4 | 30 | Cc1ccc(C(=O)Nc2cc(C(=O)NCCCN3CCCC3=O)ccc2N2CCN(c3ccccc3N)CC2)o1 [Compound 272]

Same assay, conditions: CHO FSHR cells + EC20 FSH; Table 1; read-out: Assay A EC50 of cyclic AMP production

Row | Compound | EC50 [nM]
5 | CNC[C@@H](NC(=O)c1ccc(N2CCN(c3ccccc3C)CC2)c(NC(=O)c2ccco2)c1)c1ccc(Cl)cc1 [Compound 55, Furan-2-carboxylic acid [5-[(S)-1-(4-chloro-phenyl)-2-methylamino-ethylcarbamoyl]-2-(4-o-tolyl-piperazin-1-yl)-phenyl]-amide] | 1000 to 10000
6 | Cc1ccccc1N1CCN(c2ccc(C(=O)NCc3cccc4ccccc34)cc2NC(=O)c2ccco2)CC1 [Compound 96, Furan-2-carboxylic acid [5-[(naphthalen-1-ylmethyl)-carbamoyl]-2-(4-o-tolyl-piperazin-1-yl)-phenyl]-amide] | > 10000

Second part, the compound after the results:

Row | EC50 [nM] | Compound
7 | 1000 to 10000 | Cc1ccccc1N1CCN(c2ccc(C(=O)NCCCN3CCCC3=O)cc2Nc2ncccn2)CC1 [Compound 242, N-[3-(2-Oxo-pyrrolidin-1-yl)-propyl]-3-(pyrimidin-2-ylamino)-4-(4-o-tolyl-piperazin-1-yl)-benzamide]
8 | 100 to 1000 | CC(=O)NCCCNC(=O)c1ccc(N2CCN(c3ccccc3C)CC2)c(NC(=O)c2ccc(C)o2)c1 [Compound 259, 5-Methyl-furan-2-carboxylicacid [5-(3-acetylaminopropylcarbamoyl)-2-(4-o-tolyl-piperazin-1-yl)-phenyl]-amide]
9 | 1000 to 10000 | Cc1ccccc1N1CCN(c2ccc(C(=O)NCCCN3CCCC3=O)cc2NC(=O)c2nc3ccccc3s2)CC1 [Compound 202]
10 | 100 to 1000 | Cc1ccccc1N1CCN(c2ccc(C(=O)NCCCN3CCCC3=O)cc2NC(=O)c2ccc(F)cc2F)CC1 [Compound 161]
11 | 1000 to 10000 | Cc1ccccc1N1CCN(c2ccc(C(=O)NCCCN3CCCC3=O)cc2NC(=O)c2ccc[nH]2)CC1 [Compound 24]
12 | 1000 to 10000 | Cc1ccccc1N1CCN(c2ccc(C(=O)NCCCN3CCCC3=O)cc2NC(=O)c2ccccc2C(F)(F)F)CC1 [Compound 87]

Same assay, conditions: CHO FSHR cells + EC20 FSH; Table 2; read-out: Assay A EC50 of cyclic AMP production

Row | Compound | EC50 [nM]
13 | Cc1ccccc1N1CCN(c2ccc(C(=O)NCCCN3CCC(F)(F)C3)cc2NC(=O)c2coc(C3CC3)n2)CC1 [Compound 362] | 100 to 1000
14 | CCN(CC)Cc1cccc(CNC(=O)c2ccc(N3CCN(c4ccccc4C)CC3)c(NC(=O)c3coc(C4CC4)n3)c2)c1 [Compound 536] | 100 to 1000
15 | Cc1ccccc1N1CCN(c2ccc(C(=O)NCc3ccc(F)c(CN(C)C)c3)cc2NC(=O)c2coc(C3CC3)n2)CC1 [Compound 564] | 100 to 1000
16 | Cc1ccccc1N1CCN(c2ccc(C(=O)NCC(C)(C)CN3CCCC3=O)cc2NC(=O)c2coc(C3CC3)n2)CC1 [Compound 356] | 100 to 1000
17 | Cc1ccccc1N1CCN(c2ccc(C(=O)NCc3cccc(CN4CCCC4)c3)cc2NC(=O)c2coc(C3CC3)n2)CC1 [Compound 538] | 100 to 1000
18 | Cc1ccccc1N1CCN(c2ccc(C(=O)Nc3ccc(C(C)(C)C#N)cc3)cc2NC(=O)c2coc(C3CC3)n2)CC1 [Compound 409] | > 10000
19 | Cc1ccc(C(=O)Nc2cc(C(=O)NCc3cccc(CN4CCCC4)c3)ccc2N2CCN(c3ccccc3C)CC2)o1 [Compound 546] | 1000 to 10000
20 | Cc1ccccc1N1CCN(c2ccc(C(=O)NCCCC(=O)N(C)C)cc2NC(=O)c2coc(C3CC3)n2)CC1 [Compound 418] | 100 to 1000
21 | CCCNC(=O)NCCCNC(=O)c1ccc(N2CCN(c3ccccc3C)CC2)c(NC(=O)c2coc(C3CC3)n2)c1 [Compound 433] | 100 to 1000
22 | O=C(NCCCN1CCCC1=O)c1ccc(N2CCN(c3nccs3)CC2)c(NC(=O)c2coc(C3CC3)n2)c1 [Compound 505] | 1000 to 10000
23 | C=CCNC(=O)NCCCNC(=O)c1ccc(N2CCN(c3ccccc3C)CC2)c(NC(=O)c2ccco2)c1 [Compound 512] | < 100
24 | Cc1ccccc1N1CCN(c2ccc(C(=O)NCCCNC(=O)OC(C)(C)C)cc2NC(=O)c2coc(C3CC3)n2)CC1 [Compound 416] | 100 to 1000
25 | Cc1ccccc1N1CCN(c2ccc(C(=O)NCCCc3nc(C)c(C)s3)cc2NC(=O)c2coc(C3CC3)n2)CC1 [Compound 390] | 100 to 1000
26 | CC(C)(C)OC(=O)NC1CCN(c2ccc(C(=O)NCCCN3CCCC3=O)cc2NC(=O)c2coc(C3CC3)n2)CC1 [Compound 273] | 1000 to 10000
27 | CC(=O)NCCCCNC(=O)c1ccc(N2CCN(c3ccccc3C)CC2)c(NC(=O)c2coc(C3CC3)n2)c1 [Compound 318] | 100 to 1000
28 | Cc1ccccc1N1CCN(c2ccc(C(=O)NCCc3ccccc3C(N)=O)cc2NC(=O)c2coc(C3CC3)n2)CC1 [Compound 411] | 100 to 1000
29 | Cc1ccc(C(=O)Nc2cc(C(=O)NC(C)(C)c3cccc(CN(C)C)c3)ccc2N2CCN(c3ccccc3C)CC2)o1 [Compound 545] | 1000 to 10000
30 | Cc1ccccc1N1CCN(c2ccc(C(=O)NCCCC3CCOC3)cc2NC(=O)c2coc(C3CC3)n2)CC1 (centres unmarked) [Compound 282] | 100 to 1000
31 | Cc1ccccc1N1CCN(c2ccc(C(=O)NCCCNC(=O)C3CCOCC3)cc2NC(=O)c2coc(C3CC3)n2)CC1 [Compound 441] | < 100
32 | Cc1ccccc1N1CCN(c2ccc(C(=O)NCCCc3ccccc3)cc2NC(=O)c2coc(C3CC3)n2)CC1 [Compound 278] | 1000 to 10000
33 | Cc1ccccc1N1CCN(c2ccc(C(=O)NCCCN3C(=O)[C@H]4C[C@@H]3C(O)C4O)cc2NC(=O)c2ccco2)CC1 (some centres unmarked) [Compound 477] | < 100

Next, values leading:

Row | EC50 [nM] | Compound
34 | 100 to 1000 | Cc1ccccc1N1CCN(c2ccc(C(=O)NCCCN3CCCC3=O)cc2NC(=O)c2nc(C3CC3)cs2)CC1 [Compound 285]
35 | 1000 to 10000 | Cc1ccc(C(=O)Nc2cc(C(=O)NCCCN3CCCC3=O)ccc2N2CCN(c3ccccc3OC(F)(F)F)CC2)o1 [Compound 404]
36 | 1000 to 10000 | O=C(NCCCN1CCCC1=O)c1ccc(N2CCN(c3cccnc3)CC2)c(NC(=O)c2coc(C3CC3)n2)c1 [Compound 555]
37 | 100 to 1000 | Cc1ccc(C(=O)Nc2cc(C(=O)NCCCN3CCCC3=O)ccc2N2CCN(c3ncccc3C)CC2)o1 [Compound 463]
38 | 1000 to 10000 | Cc1cncnc1N1CCN(c2ccc(C(=O)NCCCN3CCCC3=O)cc2NC(=O)c2coc(C3CC3)n2)CC1 [Compound 413]
39 | > 10000 | Cc1ccccc1N1CCN(c2ccc(C(=O)NCCCN3CCCC3=O)cc2NC(=O)c2cncn2C)CC1 [Compound 421]
40 | 100 to 1000 | Cc1ccc(C(=O)Nc2cc(C(=O)NCCCc3cccc(O)c3)ccc2N2CCN(c3ccccc3C)CC2)o1 [Compound 588]
41 | > 10000 | CC(=O)NC1(c2ccccc2)CCN(c2ccc(C(=O)NCCCN3CCCC3=O)cc2NC(=O)c2coc(C3CC3)n2)CC1 [Compound 400]
42 | 100 to 1000 | Cc1ccccc1N1CCN(c2ccc(C(=O)NCCCN3CCC[C@@H]3C(N)=O)cc2NC(=O)c2ccco2)CC1 [Compound 608]
43 | 100 to 1000 | COC(C(=O)Nc1cc(C(=O)NCCCN2CCCC2=O)ccc1N1CCN(c2ccccc2C)CC1)c1ccccc1 (centres unmarked) [Compound 562]
44 | 100 to 1000 | Cc1ccccc1N1CCN(c2ccc(C(=O)NCCCN3CCCCC3=O)cc2NC(=O)c2ccco2)CC1 [Compound 470]
